pIC50: −log10 of the molar value.
Key:
Plasmodium falciparum [1] = test: Antimalarial activity against Chloroquine resistant Plasmodium falciparum W2 assessed as parasitic growth inhibition; type: functional, organism-based
Plasmodium falciparum [2] = test: Antimalarial activity against Chloroquine sensitive Plasmodium falciparum D6 assessed as parasitic growth inhibition; type: functional, organism-based

How did the pIC50 (Plasmodium falciparum [1]) turn out when `Cc1cc(NCCNc2ccnc3cc(Cl)ccc23)nc(Nc2ccc(C(=O)N3CCCCC3)cc2)n1` was run?
Its pIC50 is 7.48.

What about the pIC50 (Plasmodium falciparum [2]) of the same compound?
The pIC50 was 7.49.

`Cc1cc(NCCNc2ccnc3cc(Cl)ccc23)nc(Nc2ccc(C(=O)N3CCSCC3)cc2)n1` was tested. Which pIC50 (Plasmodium falciparum [1]) did it give?
Its pIC50 is 7.48.

And the pIC50 (Plasmodium falciparum [2])?
Its pIC50 is 7.49.

With `Cc1cc(NCCCNc2ccnc3cc(Cl)ccc23)nc(Nc2ccc(C(=O)N3CCCC3)cc2)n1` as the compound, how does the pIC50 (Plasmodium falciparum [1]) read?
Its pIC50 is 7.48.

And the pIC50 (Plasmodium falciparum [2])?
The pIC50 was 7.49.

With `Cc1cc(NCCNc2ccnc3cc(Cl)ccc23)nc(Nc2ccc(C(=O)N3CCCC3)cc2)n1` as the compound, how does the pIC50 (Plasmodium falciparum [1]) read?
The pIC50 was 7.48.

And the pIC50 (Plasmodium falciparum [2])?
Its pIC50 is 7.49.

How did the pIC50 (Plasmodium falciparum [1]) turn out when `Cc1cc(Nc2ccc(C(=O)N3CCSCC3)cc2)nc(NCCCCNc2ccnc3cc(Cl)ccc23)n1` was run?
Its pIC50 is 7.48.

What about the pIC50 (Plasmodium falciparum [2]) of the same compound?
The pIC50 was 7.49.

With `Cc1cc(NCCCCNc2ccnc3cc(Cl)ccc23)nc(Nc2ccc(C(=O)N3CCCC3)cc2)n1` as the compound, how does the pIC50 (Plasmodium falciparum [1]) read?
The pIC50 was 7.48.

And the pIC50 (Plasmodium falciparum [2])?
Its pIC50 is 7.49.

Which results are given for `O=C(c1ccc(Nc2nccc(NCCCCNc3ccnc4cc(Cl)ccc34)n2)cc1)N1CCOCC1`?
pIC50 (Plasmodium falciparum [1]): 7.48; pIC50 (Plasmodium falciparum [2]): 7.49

Which results are given for `O=C(c1ccc(Nc2nccc(NCCCCNc3ccnc4cc(Cl)ccc34)n2)cc1)N1CCCCC1`?
pIC50 (Plasmodium falciparum [1]): 7.48; pIC50 (Plasmodium falciparum [2]): 7.49

`Cc1cc(Nc2ccc(C(=O)N3CCSCC3)cc2)nc(NCCCNc2ccnc3cc(Cl)ccc23)n1` was tested. Which pIC50 (Plasmodium falciparum [1]) did it give?
Its pIC50 is 7.48.

And the pIC50 (Plasmodium falciparum [2])?
Its pIC50 is 7.49.

Which results are given for `Cc1cc(NCCNc2ccnc3cc(Cl)ccc23)nc(Nc2ccc(C(=O)N3CCOCC3)cc2)n1`?
pIC50 (Plasmodium falciparum [1]): 7.48; pIC50 (Plasmodium falciparum [2]): 7.49

With `O=C(c1ccc(Nc2nccc(NCCCCNc3ccnc4cc(Cl)ccc34)n2)cc1)N1CCSCC1` as the compound, how does the pIC50 (Plasmodium falciparum [1]) read?
Its pIC50 is 7.48.

And the pIC50 (Plasmodium falciparum [2])?
Its pIC50 is 7.49.

How did the pIC50 (Plasmodium falciparum [1]) turn out when `O=C(c1ccc(Nc2nccc(NCCCNc3ccnc4cc(Cl)ccc34)n2)cc1)N1CCOCC1` was run?
The pIC50 was 7.48.

What about the pIC50 (Plasmodium falciparum [2]) of the same compound?
Its pIC50 is 7.49.

How did the pIC50 (Plasmodium falciparum [1]) turn out when `Cc1cc(NCCCNc2ccnc3cc(Cl)ccc23)nc(Nc2ccc(C(=O)N3CCSCC3)cc2)n1` was run?
Its pIC50 is 7.48.

What about the pIC50 (Plasmodium falciparum [2]) of the same compound?
Its pIC50 is 7.49.

With `Cc1cc(Nc2ccc(C(=O)N3CCOCC3)cc2)nc(NCCCCNc2ccnc3cc(Cl)ccc23)n1` as the compound, how does the pIC50 (Plasmodium falciparum [1]) read?
The pIC50 was 7.48.

What about the pIC50 (Plasmodium falciparum [2]) of the same compound?
Its pIC50 is 7.49.

How did the pIC50 (Plasmodium falciparum [1]) turn out when `Cc1cc(NCCCCCCNc2ccnc3cc(Cl)ccc23)nc(Nc2ccc(C(=O)N3CCCC3)cc2)n1` was run?
The pIC50 was 7.48.

And the pIC50 (Plasmodium falciparum [2])?
Its pIC50 is 7.49.

What does the source list for `O=C(c1ccc(Nc2nccc(NCCCNc3ccnc4cc(Cl)ccc34)n2)cc1)N1CCCC1`?
pIC50 (Plasmodium falciparum [1]): 7.48; pIC50 (Plasmodium falciparum [2]): 7.49

How did the pIC50 (Plasmodium falciparum [1]) turn out when `Cc1cc(NCCCNc2ccnc3cc(Cl)ccc23)nc(Nc2ccc(C(=O)N3CCCCC3)cc2)n1` was run?
Its pIC50 is 7.48.

What about the pIC50 (Plasmodium falciparum [2]) of the same compound?
Its pIC50 is 7.49.

What does the source list for `Cc1cc(NCCCCNc2ccnc3cc(Cl)ccc23)nc(Nc2ccc(C(=O)N3CCCCC3)cc2)n1`?
pIC50 (Plasmodium falciparum [1]): 7.48; pIC50 (Plasmodium falciparum [2]): 7.49

With `Cc1cc(Nc2ccc(C(=O)N3CCCC3)cc2)nc(NCCCCNc2ccnc3cc(Cl)ccc23)n1` as the compound, how does the pIC50 (Plasmodium falciparum [1]) read?
Its pIC50 is 7.48.

And the pIC50 (Plasmodium falciparum [2])?
Its pIC50 is 7.49.

How did the pIC50 (Plasmodium falciparum [1]) turn out when `O=C(c1ccc(Nc2nccc(NCCCNc3ccnc4cc(Cl)ccc34)n2)cc1)N1CCCCC1` was run?
Its pIC50 is 7.48.

And the pIC50 (Plasmodium falciparum [2])?
Its pIC50 is 7.49.

With `O=C(c1ccc(Nc2nccc(NCCCCNc3ccnc4cc(Cl)ccc34)n2)cc1)N1CCCC1` as the compound, how does the pIC50 (Plasmodium falciparum [1]) read?
Its pIC50 is 7.48.

What about the pIC50 (Plasmodium falciparum [2]) of the same compound?
Its pIC50 is 7.49.

`O=C(c1ccc(Nc2nccc(NCCCNc3ccnc4cc(Cl)ccc34)n2)cc1)N1CCSCC1` was tested. Which pIC50 (Plasmodium falciparum [1]) did it give?
The pIC50 was 7.48.

And the pIC50 (Plasmodium falciparum [2])?
Its pIC50 is 7.49.

With `Cc1cc(NCCCCCCNc2ccnc3cc(Cl)ccc23)nc(Nc2ccc(C(=O)N3CCCCC3)cc2)n1` as the compound, how does the pIC50 (Plasmodium falciparum [1]) read?
The pIC50 was 7.48.

And the pIC50 (Plasmodium falciparum [2])?
Its pIC50 is 7.49.

How did the pIC50 (Plasmodium falciparum [1]) turn out when `Cc1cc(NCCCNc2ccnc3cc(Cl)ccc23)nc(Nc2ccc(C(=O)N3CCOCC3)cc2)n1` was run?
The pIC50 was 7.48.

And the pIC50 (Plasmodium falciparum [2])?
Its pIC50 is 7.49.

Which results are given for `Cc1cc(NCCCCNc2ccnc3cc(Cl)ccc23)nc(Nc2ccc(C(=O)N3CCSCC3)cc2)n1`?
pIC50 (Plasmodium falciparum [1]): 7.48; pIC50 (Plasmodium falciparum [2]): 7.49

`Cc1cc(Nc2ccc(C(=O)N3CCOCC3)cc2)nc(NCCCNc2ccnc3cc(Cl)ccc23)n1` was tested. Which pIC50 (Plasmodium falciparum [1]) did it give?
The pIC50 was 7.48.

And the pIC50 (Plasmodium falciparum [2])?
Its pIC50 is 7.49.

Which results are given for `Cc1cc(Nc2ccc(C(=O)N3CCCCC3)cc2)nc(NCCCCNc2ccnc3cc(Cl)ccc23)n1`?
pIC50 (Plasmodium falciparum [1]): 7.48; pIC50 (Plasmodium falciparum [2]): 7.49

What does the source list for `Cc1cc(Nc2ccc(C(=O)N3CCCC3)cc2)nc(NCCCNc2ccnc3cc(Cl)ccc23)n1`?
pIC50 (Plasmodium falciparum [1]): 7.48; pIC50 (Plasmodium falciparum [2]): 7.49

`Cc1cc(Nc2ccc(C(=O)N3CCCCC3)cc2)nc(NCCCNc2ccnc3cc(Cl)ccc23)n1` was tested. Which pIC50 (Plasmodium falciparum [1]) did it give?
Its pIC50 is 7.48.

And the pIC50 (Plasmodium falciparum [2])?
Its pIC50 is 7.49.
